From ChEMBL document CHEMBL4219114, “Aralkyl selenoglycosides and related selenosugars in acetylated form activate protein phosphatase-1 and -2A” (Bioorg Med Chem, 2018)
Active and inactive are the calls of the source. The calls are words filed in the database; no cut-off is given here.

Experiments:
HeLa [1] = assay: Activation of PP1 catalytic subunit/PP2A catalytic subunit in human HeLa cells using [32P]MLC20 as substrate pretreated for 1 hr followed by substrate addition measured after 30 secs by scintillation counting method; type: cell-based
Oryctolagus cuniculus [2] = organism: Oryctolagus cuniculus; assay: Activation of rabbit skeletal muscle PP1 catalytic subunit at 19 to 395 uM using [32P]MLC20 as substrate pretreated for 10 mins followed by substrate addition measured after 10 mins by scintillation counting method relative to control
HeLa [3] = assay: Cytotoxicity against human HeLa cells assessed as reduction in cell viability at >200 uM after 24 hrs by Alamar blue assay; type: functional, cell-based
Oryctolagus cuniculus [4] = organism: Oryctolagus cuniculus; assay: Activation of rabbit skeletal muscle PP2A catalytic subunit at 19 to 395 uM using [32P]MLC20 as substrate pretreated for 10 mins followed by substrate addition measured after 10 mins by scintillation counting method relative to control
[5] = Activation of rabbit skeletal muscle PP2A catalytic subunit using [32P]MLC20 as substrate pretreated for 10 mins followed by substrate addition measured after 10 mins by scintillation counting method relative to control; set-up: species or system Oryctolagus cuniculus
[6] = Activation of rabbit skeletal muscle PP1 catalytic subunit using [32P]MLC20 as substrate pretreated for 10 mins followed by substrate addition measured after 10 mins by scintillation counting method relative to control; set-up: species or system Oryctolagus cuniculus
HeLa [7] = assay: Activation of PP1 catalytic subunit/PP2A catalytic subunit in human HeLa cells at >100 uM using [32P]MLC20 as substrate pretreated for 1 hr followed by substrate addition measured after 30 secs by scintillation counting method; type: cell-based
Oryctolagus cuniculus [8] = organism: Oryctolagus cuniculus; assay: Activation of rabbit skeletal muscle PP1 catalytic subunit at 395 uM using [32P]MLC20 as substrate pretreated for 10 mins followed by substrate addition measured after 10 mins in presence of 10 to 25 uM MYPT1 (23 to 38 residues) peptide by scintillation counting method
[9] = target: Serine/threonine-protein phosphatase PP1-beta catalytic subunit (Homo sapiens) (UniProt P62140); assay: Binding affinity to full length recombinant human N-terminal His6-tagged PP1cdelta expressed in Escherichia coli M15 assessed as inhibition of protein interaction with GST-tagged MYPT1 at 10 to 50 uM by surface plasmon resonance method
Oryctolagus cuniculus [10] = organism: Oryctolagus cuniculus; assay: Activation of rabbit skeletal muscle PP2A catalytic subunit at 395 uM using [32P]MLC20 as substrate pretreated for 10 mins followed by substrate addition measured after 10 mins in presence of 10 uM MYPT1 (23 to 38 residues) peptide by scintillation counting method relative to control
[11] = Inhibition of rabbit skeletal muscle PP1 catalytic subunit at 19 to 395 uM using [32P]MLC20 as substrate pretreated for 10 mins followed by substrate addition measured after 10 mins by scintillation counting method; set-up: species or system Oryctolagus cuniculus
[12] = Inhibition of rabbit skeletal muscle PP2A catalytic subunit at 19 to 395 uM using [32P]MLC20 as substrate pretreated for 10 mins followed by substrate addition measured after 10 mins by scintillation counting method relative to control; set-up: species or system Oryctolagus cuniculus
HeLa [13] = assay: Activation of PP1 catalytic subunit/PP2A catalytic subunit in human HeLa cells at 395 uM using [32P]MLC20 as substrate pretreated for 1 hr followed by substrate addition measured after 30 secs by scintillation counting method; type: cell-based

Chain of Serine/threonine-protein phosphatase PP1-beta catalytic subunit (Homo sapiens) (P62140 whole entry, the tested form may be a part): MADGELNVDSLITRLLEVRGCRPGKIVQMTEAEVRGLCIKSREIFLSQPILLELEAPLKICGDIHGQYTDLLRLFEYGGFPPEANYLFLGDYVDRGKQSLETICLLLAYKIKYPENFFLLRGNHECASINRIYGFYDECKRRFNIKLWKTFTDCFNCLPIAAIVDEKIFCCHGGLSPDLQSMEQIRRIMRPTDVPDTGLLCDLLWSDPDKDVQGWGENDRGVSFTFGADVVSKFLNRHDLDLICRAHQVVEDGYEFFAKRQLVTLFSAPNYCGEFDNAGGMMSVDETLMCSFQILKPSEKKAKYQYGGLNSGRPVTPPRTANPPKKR

Compound | Activity (Oryctolagus cuniculus [2]) | Activity (Oryctolagus cuniculus [4]) | EC50 [5] | EC50 [6] | inhibition (INH) [11] | inhibition (INH) [12] | also measured
OC[C@H]1O[C@@H]([Se]Cc2ccccc2C(F)(F)F)[C@H](O)[C@@H](O)[C@@H]1O | inactive | inactive |  |  |  |  | Activity (HeLa [1]): inactive; Activity (HeLa [3]): Active
COc1ccc(C[Se][C@@H]2O[C@H](COC(C)=O)[C@@H](OC(C)=O)[C@H](OC(C)=O)[C@H]2OC(C)=O)cc1 | Active | Active | 119 µM | 222 µM |  |  | 
CC(=O)OC[C@H]1O[C@@H]([Se]c2ccccc2)[C@H](OC(C)=O)[C@@H](OC(C)=O)[C@@H]1OC(C)=O |  |  | 84.8 µM | 291 µM |  |  | fold change (FC) (Oryctolagus cuniculus [2]): 4; fold change (FC) (Oryctolagus cuniculus [4]): 4
CC(=O)OC[C@H]1O[C@@H]([Se]Cc2ccccc2C(F)(F)F)[C@H](OC(C)=O)[C@@H](OC(C)=O)[C@@H]1OC(C)=O | Active | Active | 83.5 µM | 233 µM |  |  | Activity (HeLa [7]): Active; Activity (Oryctolagus cuniculus [8]): inactive; Activity (HeLa [3]): Active; Activity [9]: Active; Activity (Oryctolagus cuniculus [10]): Active
CC(=O)OC[C@H]1O[C@@H]([Se]C(=O)c2ccccc2)[C@H](OC(C)=O)[C@@H](OC(C)=O)[C@@H]1OC(C)=O |  | inactive |  |  | Active | Active | fold change (FC) (Oryctolagus cuniculus [2]): 2
CC(=O)OC[C@H]1O[C@@H]([Se]Cc2ccc(Br)cc2)[C@H](OC(C)=O)[C@@H](OC(C)=O)[C@@H]1OC(C)=O | Active | Active | 119 µM | 108 µM |  |  | Activity (Oryctolagus cuniculus [8]): inactive; Activity (HeLa [13]): Active; Activity [9]: Active; Activity (Oryctolagus cuniculus [10]): Active
CC(=O)OC[C@H]1O[C@@H]([Se]C(=O)c2ccc(C)cc2)[C@H](OC(C)=O)[C@@H](OC(C)=O)[C@@H]1OC(C)=O | Active | Active |  |  | Active | Active | 
CC(=O)OC[C@H]1O[C@@H]([Se]CCc2ccccc2)[C@H](OC(C)=O)[C@@H](OC(C)=O)[C@@H]1OC(C)=O |  |  | 104 µM | 171 µM |  |  | fold change (FC) (Oryctolagus cuniculus [2]): 4; fold change (FC) (Oryctolagus cuniculus [4]): 4
CC(=O)OC[C@H]1O[C@@H]([Se]C(=O)c2ccc(Cl)cc2)[C@H](OC(C)=O)[C@@H](OC(C)=O)[C@@H]1OC(C)=O | Active | Active |  |  | Active | Active | 
CC(=O)OC[C@H]1O[C@@H]([Se]Cc2ccc([N+](=O)[O-])cc2)[C@H](OC(C)=O)[C@@H](OC(C)=O)[C@@H]1OC(C)=O | inactive | inactive |  |  | Active |  | 
CC(=O)OC[C@H]1O[C@@H]([Se]c2ccc([N+](=O)[O-])cc2[N+](=O)[O-])[C@H](OC(C)=O)[C@@H](OC(C)=O)[C@@H]1OC(C)=O | inactive | inactive |  |  | Active | Active | 
CC(=O)N[C@@H]1[C@@H](OC(C)=O)[C@H](OC(C)=O)[C@@H](COC(C)=O)O[C@H]1[Se]c1ccc([N+](=O)[O-])cn1 | inactive | inactive |  |  | Active | Active | 
OC[C@H]1O[C@@H]([Se]Cc2ccccc2)[C@H](O)[C@@H](O)[C@@H]1O | inactive | inactive |  |  |  |  | Activity (HeLa [1]): inactive; Activity (HeLa [3]): Active
CC(=O)N[C@@H]1[C@@H](OC(C)=O)[C@H](OC(C)=O)[C@@H](COC(C)=O)O[C@H]1[Se]C(=O)c1ccc(C)cc1 | Active | Active |  |  | Active | Active | 
CC(=O)OC[C@H]1O[C@@H]([Se]Cc2ccccc2)[C@H](OC(C)=O)[C@@H](OC(C)=O)[C@@H]1OC(C)=O | Active | Active |  |  |  |  | Activity (HeLa [3]): Active
CC(=O)OC[C@H]1O[C@@H]([Se]c2ccc([N+](=O)[O-])cn2)[C@H](OC(C)=O)[C@@H](OC(C)=O)[C@@H]1OC(C)=O | inactive | inactive |  |  | Active | Active | 
